Patent publication US20060204460A1, “Lip gloss composition” (KOKYU ALCOHOL KOGYO CO., LTD., priority 2005, published 2006)

Assay: Viscosity of liquid oil (E) on a Brookfield viscometer
Type: physicochemical
Conditions: at 25 degrees C., No. 2 spindle, 12 rpm
Experimental: The liquid oil having a viscosity of from 5 to 400 mPa·s at 25 degrees C., (E), is known and commonly used in cosmetics. The viscosity of the liquid oil at 25 degrees C. is preferably 8 to 350 mPa·s, and more preferably 12 to 300 mPa·s. […] The viscosity is measured on a Brookfield viscometer using No. 2 spindle at 12 rpm.

| Compound | Viscosity |
| --- | --- |
| CC(C)CCCCCCOC(=O)CCCCCC(C)C [isononyl isononanoate] | 6 mPa·s |
| CCCCCCCCCCCCCCCC(=O)OC(C)C [isopropyl palmitate] | 7 mPa·s |
| CCCCC(CC)C(=O)OCC(C)(C)COC(=O)C(CC)CCCC (stereo not drawn) [neopentylglycol diethylhexanoate] | 13 mPa·s |
| CCCCC(CC)C(=O)OCC(COC(=O)C(CC)CCCC)(COC(=O)C(CC)CCCC)COC(=O)C(CC)CCCC (stereo not drawn) [pentaerythrityl tetraethylhexanoate] | 110 mPa·s |
| CC(C)CCCC(C)CCCC(C)CCCCC(C)CCCC(C)CCCC(C)C (stereo not drawn) [squalane] | 32 mPa·s |
| ethylhexyl hydroxystearate | 64 mPa·s |
| hexyldecyl ethylhexanoate | 11 mPa·s |
| hexyldecyl isostearate | 34 mPa·s |
| octyldodecyl neodecanoate | 25 mPa·s |
| octyldodecyl neopentanoate | 15 mPa·s |
| triisostearine | 185 mPa·s |
| trimethylolpropane triethylhexanoate | 52 mPa·s |
| trimethylolpropane triisostearate | 180 mPa·s |

Other lines, results leading:

| Viscosity | Compound |
| --- | --- |
| 13 mPa·s | CCCCCCCCCCCCCCCCOC(=O)C(CC)CCCC (stereo not drawn) [cetyl ethylhexanoate] |
| 10 mPa·s | CC(C)CCCCCCCCCCCCCCC(=O)OC(C)C [isopropyl isostearate] |
| 40 mPa·s | CC(C)CCCCCCCCCCCCCCCOC(=O)CCCCCCCCCCCCCCC(C)C [isostearyl isostearate] |
| 15 mPa·s | CC(C)CCCCCCCCCCCCCCCOC(=O)C(C)(C)C [isostearyl neopentanoate] |
| 12 mPa·s | CC(C)CCCCCCCCCCOC(=O)CCCCCC(C)C [isotridecyl isononanoate] |
| 19 mPa·s | CCCCCCCCCC(=O)OCC(C)(C)COC(=O)CCCCCCCCC [neopentylglycol dicaprate] |
| 35 mPa·s | CCCCC(CC)C(=O)OCC(COC(=O)C(CC)CCCC)OC(=O)C(CC)CCCC (stereo not drawn) [triethyl hexanoin] |
| 310 mPa·s | diisopropyl dilinoleate |
| 5 mPa·s | isononyl ethylhexanoate |
| 90 mPa·s | octyldodecyl stearoyloxystearate |
| 290 mPa·s | pentaerythrityl tetraisostearate |
